Test results as given in patent publication US20110319392A1, “Thiazole Sulfonamide And Oxazole Sulfonamide Kinase Inhibitors” (priority 2009, published 2011).

Legend:
EGFR = biological target: T1, EGFR (Homo sapiens, UniProt P00533); assay: EGFR substrate phosphorylation assay (HTRF); format: biochemical
T1 construct: made in house; host or cells: baculovirus expression system
Procedure: (§1) Compounds of the present invention were tested for EGFR and ErbB-2 protein tyrosine kinase inhibitory activity in substrate phosphorylation assays using enzymes purified from a baculovirus expression system. Reagent production was conducted essentially as described in Brignola, P. S., et al, (2002) J. Biol. Chem. 277(2):1576-1585.
(§2) The method measures the ability of the isolated enzyme to catalyse the transfer of the gamma-phosphate from ATP onto the tyrosine residue of a biotinylated synthetic peptide referenced “Peptide C” in Brignola, P. S., et al, (2002) J. Biol. Chem. 277(2):1576-1585. The extent of tyrosine phosphorylation was measured using an anti-phosphotyrosine antibody, and quantified by homogenous time-resolved fluorescence (HTRF).
(§3) Reactions were performed in black 384-well polystyrene flat-bottom plates in a final volume of 20 μL. Assays were performed by adding 10 μL of each of the following solutions, Substrate Mix and Enzyme Mix: The Substrate Mix contained 100 mM 3-[N-morpholino]propanesulfonic acid (MOPS) (pH 7.5), 2 mM MnCl2, 20 μM ATP, 0.01% Tween-20, 0.1 mg/mL (BSA), 0.8 uM peptide substrate, and 1 mM dithiothreitol. The Enzyme Mix contained 100 mM MOPS (pH7.5); 0.01% Tween-20; 0.1 mg/mL BSA, and either 0.8 nM EGFR, 10 nM ErbB2, or 1 nM ErbB4. The Enzyme Mix was added to the compound plates and the plates were incubated at 20° C. for 1 hr. The reactions were then started by adding the Substrate Mix.
(§4) After initiating the reaction with the method described above, the reactions were allowed to proceed for 90 minutes at 20° C. The reactions were then terminated by the addition of 20 μL 100 mM EDTA to each well. 40 μL/well of HTRF detection mix were added to the assay plates. The final concentrations of the detection reagents were: 100 mM HEPES (pH7.5), 0.1 mg/mL BSA, 15 nM streptavidin-labeled allophycocyanin (PerkinElmer), and 1 nM europium-labeled anti-phosphotyrosine antibody (Perkin Elmer). Assay plates were left unsealed and were counted in a Wallac Multilabel Counter 1420 (PerkinElmer).
(§5) Compounds under analysis were dissolved in dimethylsulfoxide (DMSO) to 1.0 mM and serially diluted 1 to 3 with DMSO through twelve dilutions. 1 μL of each concentration was transferred to the corresponding well of an assay plate. This creates a final compound concentration range from 0.00027 to 47.6 μM.
(§6) The data for dose responses were plotted as % Inhibition calculated with the data reduction formula 100*(1-(U1−C2)/(C1−C2)) versus concentration of compound where U1 is the unknown value, C1 is the average control value obtained for 4.76% DMSO, and C2 is the average control value obtained for 0.035 M EDTA. Data were fitted with a curve described by:
(§7) where Vmax is the upper asymptote, Y2 is the Y intercept, and K is the IC50. The results for each compound were recorded as pIC50s, calculated as follows: […]

ErbB2 = biological target: T2, ErbB2 (Homo sapiens, UniProt P04626); assay: ErbB-2 substrate phosphorylation assay (HTRF); format: biochemical
T2 construct: made in house; host or cells: baculovirus expression system
T2 sequence (P04626 23-1255): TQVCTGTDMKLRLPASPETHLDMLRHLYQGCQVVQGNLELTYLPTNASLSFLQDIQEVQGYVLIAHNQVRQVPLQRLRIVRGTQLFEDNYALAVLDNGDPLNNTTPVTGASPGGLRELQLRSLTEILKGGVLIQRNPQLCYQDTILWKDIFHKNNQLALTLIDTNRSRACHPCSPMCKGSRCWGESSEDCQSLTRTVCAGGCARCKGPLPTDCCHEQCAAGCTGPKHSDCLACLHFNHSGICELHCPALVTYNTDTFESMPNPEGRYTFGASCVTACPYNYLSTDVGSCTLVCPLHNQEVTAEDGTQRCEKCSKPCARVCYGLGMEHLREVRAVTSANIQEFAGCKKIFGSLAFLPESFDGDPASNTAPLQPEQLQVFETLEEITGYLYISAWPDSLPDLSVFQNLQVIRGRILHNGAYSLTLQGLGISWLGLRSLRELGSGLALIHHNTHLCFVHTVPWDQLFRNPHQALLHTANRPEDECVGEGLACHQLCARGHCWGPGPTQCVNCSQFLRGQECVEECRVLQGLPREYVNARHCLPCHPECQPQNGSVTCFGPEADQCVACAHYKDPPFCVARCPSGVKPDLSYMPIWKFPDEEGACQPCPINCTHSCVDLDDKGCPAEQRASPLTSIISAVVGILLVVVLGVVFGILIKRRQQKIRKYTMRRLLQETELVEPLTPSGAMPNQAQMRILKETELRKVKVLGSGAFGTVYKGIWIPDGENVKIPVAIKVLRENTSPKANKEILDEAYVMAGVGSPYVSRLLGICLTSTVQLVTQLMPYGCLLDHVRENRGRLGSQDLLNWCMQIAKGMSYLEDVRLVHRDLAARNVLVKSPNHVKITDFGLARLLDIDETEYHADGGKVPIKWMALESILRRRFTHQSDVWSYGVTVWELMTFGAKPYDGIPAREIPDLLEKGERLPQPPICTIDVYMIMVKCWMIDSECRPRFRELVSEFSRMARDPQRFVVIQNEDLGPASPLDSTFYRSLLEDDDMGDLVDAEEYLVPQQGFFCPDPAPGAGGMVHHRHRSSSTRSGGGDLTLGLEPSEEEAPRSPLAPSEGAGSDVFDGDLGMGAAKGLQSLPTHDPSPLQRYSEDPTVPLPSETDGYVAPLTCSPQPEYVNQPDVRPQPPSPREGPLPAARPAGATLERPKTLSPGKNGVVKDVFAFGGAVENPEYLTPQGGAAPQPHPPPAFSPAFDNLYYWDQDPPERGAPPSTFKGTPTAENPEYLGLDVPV
Procedure: as §1, §2, §3, §4, §5, §6, §7

B-Raf = B-Raf (Homo sapiens, UniProt P15056); assay: B-Raf Accelerated MEK ATPase assay (BRAMA), Method A or B; format: biochemical; settings: Method B: final MEK 150 nM, single end point read
B-Raf, sequence (P15056 whole entry): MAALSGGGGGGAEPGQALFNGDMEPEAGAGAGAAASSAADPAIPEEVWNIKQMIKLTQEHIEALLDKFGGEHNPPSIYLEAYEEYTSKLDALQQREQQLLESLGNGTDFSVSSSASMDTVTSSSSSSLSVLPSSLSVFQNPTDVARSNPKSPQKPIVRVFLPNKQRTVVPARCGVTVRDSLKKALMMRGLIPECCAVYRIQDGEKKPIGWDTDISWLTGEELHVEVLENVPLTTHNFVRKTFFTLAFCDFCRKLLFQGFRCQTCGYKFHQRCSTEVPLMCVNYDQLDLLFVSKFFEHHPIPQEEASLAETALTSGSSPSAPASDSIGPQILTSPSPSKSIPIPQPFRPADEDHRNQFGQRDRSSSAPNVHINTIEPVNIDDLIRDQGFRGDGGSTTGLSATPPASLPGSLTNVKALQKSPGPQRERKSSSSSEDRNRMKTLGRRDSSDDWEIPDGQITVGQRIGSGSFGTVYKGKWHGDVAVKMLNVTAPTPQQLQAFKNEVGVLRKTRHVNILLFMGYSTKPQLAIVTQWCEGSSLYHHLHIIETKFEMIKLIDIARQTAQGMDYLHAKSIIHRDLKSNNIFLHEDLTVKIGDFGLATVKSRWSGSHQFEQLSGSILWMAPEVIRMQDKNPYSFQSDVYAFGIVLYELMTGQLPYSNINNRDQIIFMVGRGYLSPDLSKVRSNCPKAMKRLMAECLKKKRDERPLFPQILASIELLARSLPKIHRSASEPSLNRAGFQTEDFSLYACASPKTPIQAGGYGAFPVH
Procedure: Compounds of the present invention were tested for B-Raf protein serine kinase inhibitory activity in a B-Raf Accelerated MEK ATPase assay (BRAMA). The BRAMA assay is a high sensitivity assay which measures an intrinsic MEK-mediated ATP hydrolysis uncoupled from downstream ERK phosphorylation by coupling the formation of ADP to NADH oxidation through the enzymes pyruvate kinase and lactate dehydrogenase. When ADP production is initiated by addition of catalytic amounts of an activated Raf enzyme and non-phosphorylated MEK, one observes robust ADP production concomitant with Raf-mediated phosphorylation of MEK.
Method A: Specific details of the assay are disclosed in: C. Rominger, M. Schaber, E. May. Assay for B-Raf Activity Based on Intrinsic MEK ATPase Activity. Statutory Invention Registration 11/084,993 (March, 2005). Method B: The method is the same as method A, but includes the following changes: 1) the assay was performed with a final MEK concentration of 150 nM and 2) the assay was read as single end point instead of a kinetic read.

Colo205 tumor cells = assay: Cell growth inhibition assay (CellTiter-Glo), Colo205; format: cell-based, Human; settings: Homo sapiens, COLO 205, 72 h; 3 days incubation
Procedure: (§8) Human breast tumor cells (BT474) were cultured in RPMI (Mediatech […]), containing 10% FBS (JRH Biosciences 12176) and 1% penicillin-streptomycin (Invitrogen 15140). Human head and neck tumor cells (HN5) were cultured in high glucose DMEM (Mediatech 50-013-PB) containing 10% FBS and 1% penicillin-streptomycin. Human colon tumor cells (Colo205) were cultured in RPMI (Mediatech 50-020-PB) containing 10% FBS and 1% penicillin-streptomycin. Human melanoma cancer cells (SK-MEL-28) were cultured in EMEM with nonessential amino acids (Mediatech 50-011-PB) containing 10% FBS, 1% sodium pyruvate (JT Baker 3354-04), and 1% penicillin-streptomycin. Human melanoma cancer cells (A375P F11s) were cultured in RPMI (Mediatech 50-020-PB) containing 10% FBS, 1% sodium pyruvate, and 1% penicillin-streptomycin. Human colon cancer cells (HT-29) were cultured in high glucose DMEM (Mediatech 50-013-PB) containing 10% FBS and 1% penicillin-streptomycin. Human melanoma cancer cells (SK-MEL-3) were cultured in McCoy's 5A (50-025-PB) containing 15% FBS, and 1% penicillin-streptomycin. All cell lines were maintained at 37° C. in a humidified 5% CO2, 95% air incubator. Cells were harvested using trypsin/EDTA (Invitrogen 25200), counted using a haemocytometer, and plated. For 96-well assays (using white full-area NUNC plates cat. #136102), cells were plated in 105 μL at the following densities (cells/well): HNS, 500; Colo 205, 500; SK-MEL-28, 500; A375P F11s, 500; HT-29, 500; SK-MEL-3, 500; and BT474, 3000. For 384-well assays (white full-area NUNC plates, cat. #781080), cells were plated in 48 μL at the following densities (cells/well): HNS, 500; Colo205, 500; SK-MEL-28, 500; A375P F11s, 500; HT-29, 500; SK-MEL-3, 500; and BT474, 2000.
(§9) The next day, compounds were diluted as follow: For 96-well assays, 13.5 μL of compound in DMSO were diluted using nine (9) serial 1:3 dilutions of 4.5 μL in 9 of DMSO. Medium (270 μL/well of RPMI with 10% FBS and 1% penicillin-streptomycin) was added to the plates. Aliquots (7 μL) were added to cells in the final assay giving a final DMSO concentration of 0.2%. For 384-well assays, 15 μL of compound in DMSO were diluted using nine (9) serial 1:3 dilutions of 5 μL in 10 μL of DMSO, followed by a further dilution of 5 μL of compound with 95 μL of medium, of which 2 μL were added to cells in the final assay giving a final DMSO concentration of 0.2%. Cells were incubated at 37° C., 5% CO2 for 3 days.
(§10) Total ATP was measured (as a surrogate estimate of cell number) using CellTiter-Glo® reagent (Promega G7571). Briefly, plates were removed from the incubator and allowed to equilibrate to room temperature for 30 minutes. CellTiter-Glo® (25 μL or 55 μL for 384-well or 96-well assays, respectively) reagent was added to each well and plates were shaken on an orbital plate shaker for 2 minutes. Plates were incubated without shaking for a further 30 minutes and read on an LJL Analyst GT reader in luminometer mode with an integration time of 0.5 seconds per well. Percent inhibition of cell growth was calculated relative to DMSO vehicle-treated control wells. Concentration of compound required to give 50% inhibition of vehicle-treated control cell growth (IC50) was interpolated using a 4-parameter fit for determining IC50 using the following equation: Y=A +((B−A)/(1+((C/X)̂D))) where […].

SK-MEL-28 tumor cells = assay: Cell growth inhibition assay (CellTiter-Glo), SK-MEL-28; format: cell-based, Human; settings: Homo sapiens, SK-MEL-28, 72 h; 3 days incubation
Procedure: as §8, §9, §10

T1 sequence (P00533 25-1210): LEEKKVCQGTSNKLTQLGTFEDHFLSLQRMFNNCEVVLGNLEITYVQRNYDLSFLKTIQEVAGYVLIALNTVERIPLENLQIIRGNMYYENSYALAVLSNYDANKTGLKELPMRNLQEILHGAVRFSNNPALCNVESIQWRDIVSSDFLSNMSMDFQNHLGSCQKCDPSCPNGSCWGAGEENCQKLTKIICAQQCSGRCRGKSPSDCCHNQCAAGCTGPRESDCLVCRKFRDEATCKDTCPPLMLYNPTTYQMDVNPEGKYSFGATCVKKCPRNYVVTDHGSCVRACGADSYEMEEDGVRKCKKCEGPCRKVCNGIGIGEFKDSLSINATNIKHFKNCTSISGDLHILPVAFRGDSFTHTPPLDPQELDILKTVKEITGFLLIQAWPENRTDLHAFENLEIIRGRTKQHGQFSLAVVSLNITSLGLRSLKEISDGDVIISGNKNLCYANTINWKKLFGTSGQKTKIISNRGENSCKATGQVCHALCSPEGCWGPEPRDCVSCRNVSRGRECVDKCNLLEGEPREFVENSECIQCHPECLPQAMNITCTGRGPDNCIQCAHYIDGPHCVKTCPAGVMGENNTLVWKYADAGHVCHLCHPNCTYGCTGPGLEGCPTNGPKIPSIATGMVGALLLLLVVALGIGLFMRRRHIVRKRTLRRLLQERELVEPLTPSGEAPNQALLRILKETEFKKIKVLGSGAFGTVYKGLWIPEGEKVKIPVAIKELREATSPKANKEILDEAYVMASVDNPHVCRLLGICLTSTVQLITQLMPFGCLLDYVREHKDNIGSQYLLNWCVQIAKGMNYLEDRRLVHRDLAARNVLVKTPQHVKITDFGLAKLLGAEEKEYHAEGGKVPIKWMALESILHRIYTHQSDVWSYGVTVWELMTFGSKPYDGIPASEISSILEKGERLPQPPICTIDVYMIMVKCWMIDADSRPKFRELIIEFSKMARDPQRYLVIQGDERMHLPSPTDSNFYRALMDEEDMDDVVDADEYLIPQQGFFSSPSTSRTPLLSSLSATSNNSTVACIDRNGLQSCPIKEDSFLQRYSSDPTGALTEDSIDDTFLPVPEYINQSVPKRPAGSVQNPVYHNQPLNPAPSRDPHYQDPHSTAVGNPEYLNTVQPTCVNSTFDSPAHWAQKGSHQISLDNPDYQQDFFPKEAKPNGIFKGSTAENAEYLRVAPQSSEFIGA

SMILES	IC50 (EGFR)	IC50 (ErbB2)	IC50 (B-Raf)	IC50 (Colo205 tumor cells)	IC50 (SK-MEL-28 tumor cells)
COc1cc(N2CCN(CCS(C)(=O)=O)CC2)c(C)cc1Nc1nccc(-c2sc(C)nc2-c2cccc(NS(=O)(=O)c3c(F)cccc3F)c2)n1 [Example 134]	< 100 nM	100 to 1000 nM	100 to 1000 nM	100 to 1000 nM	100 to 1000 nM
CC(C)c1nc(-c2ccc(F)c(NS(=O)(=O)c3ccccc3C(F)(F)F)c2)c(-c2ccnc(Nc3ccc(N4CCOCC4)nc3)n2)s1 [Example 135]	> 1000 nM	100 to 1000 nM	< 100 nM	100 to 1000 nM	100 to 1000 nM
COc1cc(N2CCN(CCS(C)(=O)=O)CC2)c(C)cc1Nc1nccc(-c2oc(N3CCCC3)nc2-c2cccc(NS(=O)(=O)c3c(F)cccc3F)c2)n1 [Example 136]	100 to 1000 nM	100 to 1000 nM	100 to 1000 nM	100 to 1000 nM	100 to 1000 nM
Cc1cc(CS(C)(=O)=O)ccc1Nc1nccc(-c2sc(C(C)C)nc2-c2ccc(F)c(NS(=O)(=O)c3c(F)cccc3F)c2)n1 [Example 138]	> 1000 nM	> 1000 nM	< 100 nM	100 to 1000 nM	< 100 nM
CC(C)c1nc(-c2cccc(NS(=O)(=O)c3c(F)cccc3F)c2)c(-c2ccnc(Nc3cnc(N4CCOCC4)cc3O)n2)s1 [Example 139]	> 1000 nM	> 1000 nM	< 100 nM	100 to 1000 nM	100 to 1000 nM
CC(C)c1nc(-c2cccc(NS(=O)(=O)c3cccc(OC(F)F)c3)c2)c(-c2ccnc(Nc3ccc(N4CCOCC4)nc3)n2)s1 [Example 141]	> 1000 nM	100 to 1000 nM	100 to 1000 nM	100 to 1000 nM	100 to 1000 nM
CC(C)c1nc(-c2cccc(NS(=O)(=O)c3ccc(C(C)(C)C)cc3)c2)c(-c2ccnc(Nc3ccc(N4CCOCC4)nc3)n2)s1 [Example 142]	> 1000 nM	100 to 1000 nM	< 100 nM	> 1000 nM	> 1000 nM
O=S(=O)(Nc1cccc(-c2nc(-c3ccc(F)c(Cl)c3)sc2-c2ccnc(Nc3ccc(N4CCOCC4)nc3)n2)c1F)c1c(F)cccc1F [Example 143]	> 1000 nM	> 1000 nM	< 100 nM	100 to 1000 nM	< 100 nM
COc1cc(N2CCN(CCS(C)(=O)=O)CC2)c(C)cc1Nc1nccc(-c2sc(C(C)C)nc2-c2cc(NS(=O)(=O)c3c(F)cccc3F)ccc2F)n1 [Example 144]	100 to 1000 nM	< 100 nM	100 to 1000 nM	100 to 1000 nM	100 to 1000 nM
CC(C)c1nc(-c2ccc(F)c(NS(=O)(=O)c3c(F)cccc3F)c2)c(-c2ccnc(Nc3ncc[nH]3)n2)s1 [Example 147]	> 1000 nM	> 1000 nM	100 to 1000 nM	100 to 1000 nM	100 to 1000 nM
CC(C)c1nc(-c2ccc(F)c(NS(=O)(=O)c3c(F)cccc3F)c2)c(-c2ccnc(Nc3ccncn3)n2)s1 [Example 148]	> 1000 nM	> 1000 nM	100 to 1000 nM	100 to 1000 nM	100 to 1000 nM
COc1cc(N2CCN(CCS(C)(=O)=O)CC2)c(C)cc1Nc1nccc(-c2sc(C3CCCC3)nc2-c2cccc(NS(=O)(=O)c3c(F)cccc3F)c2)n1 [Example 149]	> 1000 nM	100 to 1000 nM	100 to 1000 nM	< 100 nM	100 to 1000 nM
COc1cc(N2CCN(CCS(C)(=O)=O)CC2)c(C)cc1Nc1nccc(-c2sc(C3CCOCC3)nc2-c2cccc(NS(=O)(=O)c3c(F)cccc3F)c2)n1 [Example 150]	< 100 nM	< 100 nM	< 100 nM	< 100 nM	< 100 nM
CCNc1nc(-c2cccc(NS(=O)(=O)c3c(F)cccc3F)c2)c(-c2ccnc(Nc3cc(C)c(N4CCN(CCS(C)(=O)=O)CC4)cc3OC)n2)s1 [Example 153]	< 100 nM	< 100 nM	< 100 nM	< 100 nM	100 to 1000 nM
O=S(=O)(Nc1cccc(-c2nc(N3CCCCC3)sc2-c2ccnc(Nc3ccc(N4CCOCC4)c(F)c3)n2)c1)c1c(F)cccc1F [Example 154]	> 1000 nM	> 1000 nM	< 100 nM	< 100 nM	< 100 nM
COc1cc(CCN2CCCCC2)c(F)cc1Nc1nccc(-c2sc(C(C)C)nc2-c2cccc(NS(=O)(=O)c3c(F)cccc3F)c2)n1 [Example 156]	100 to 1000 nM	100 to 1000 nM	< 100 nM	100 to 1000 nM	100 to 1000 nM
